# Assay results from patent publication US8394825B2, “Compound” (Sterix Limited, priority 2007, dated 2013).
row,SMILES,melting point [°C]
1,COc1cc2c(cc1O[Si](C(C)C)(C(C)C)C(C)C)CCN(Cc1cccc([N+](=O)[O-])c1)C2,57.3 to 58.6
2,COc1cc2c(cc1OCc1ccccc1)CCN(Cc1cccc(O[Si](C(C)C)(C(C)C)C(C)C)c1)C2,78 to 79
3,"COc1cc2c(cc1OCc1ccccc1)CCN(Cc1ccc(C#N)cc1)C2 [29A, 6-Benzyloxy-2-(4-cyanobenzyl)-7-methoxy-1,2,3,4-tetrahydroisoquinoline]",161 to 162
4,"COC(=O)c1cccc(CN2CCc3cc(O)c(OC)cc3C2)c1 [70A, 2-(3-(Methoxycarbonyl)benzyl)-6-hydroxy-7-methoxy-1,2,3,4-tetrahydroisoquinoline]",156 to 158
5,"COC(=O)c1ccccc1S(=O)(=O)N1CCc2cc(O)c(OC)cc2C1 [186A, 7-Methoxy-2-(2-(methoxycarbonyl)benzenesulfonyl)-6-hydroxy-1,2,3,4-tetrahydroisoquinoline]",134 to 138
6,"COc1cc2c(cc1O)CCN(S(=O)(=O)c1cccc(CC(=O)O)c1)C2=O [203A, 6-Hydroxy-7-methoxy-2-(3-carboxymethyl-benzenesulfonyl)-3,4-dihydro-2H-isoquinolin-1-one]",236 to 239
7,"Oc1ccc2c(c1)CCN(Cc1ccc3c(c1)OCO3)C2 [B2, 2-Piperonyl-1,2,3,4-tetrahydroisoquinolin-6-ol]",63 to 87
8,"CCOc1cccc(C(=O)N2CCc3cc(O)ccc3C2)c1 [B4, 2-(3-Ethoxybenzoyl)-1,2,3,4-tetrahydroisoquinolin-6-ol]",150 to 151
9,"COc1cc(CC(=O)N2CCc3cc(O)ccc3C2)cc(OC)c1OC [B5, 2-(3,4,5-Trimethoxyphenylacetyl)-1,2,3,4-tetrahydroisoquinolin-6-ol]",37 to 53
10,"CCOc1ccc(C(=O)N2CCc3cc(O)ccc3C2)cc1OCC [B6, 2-(3,4-Diethoxybenzoyl)-1,2,3,4-tetrahydroisoquinolin-6-ol]",149 to 160
11,"COc1ccc(OC)c(C(=O)N2CCc3cc(O)ccc3C2)c1 [B7, 2-(2,5-Dimethoxybenzoyl)-1,2,3,4-tetrahydroisoquinolin-6-ol]",61 to 86
12,"COc1ccc(C(=O)N2CCc3cc(O)ccc3C2)c(OC)c1 [B8, 2-(2,4-Dimethoxybenzoyl)-1,2,3,4-tetrahydroisoquinolin-6-ol]",62 to 87
13,"COc1cccc(C(=O)N2CCc3cc(O)ccc3C2)c1OC [B9, 2-(2,3-Dimethoxybenzoyl)-1,2,3,4-tetrahydroisoquinolin-6-ol]",167 to 172
14,"COc1ccc(C(=O)N2CCc3cc(O)ccc3C2)cc1OC [B10, 2-(3,4-Dimethoxybenzoyl)-1,2,3,4-tetrahydroisoquinolin-6-ol]",58 to 77
15,"COc1cc(OC)c(C(=O)N2CCc3cc(O)ccc3C2)cc1OC [B11, 2-(2,4,5-Trimethoxybenzoyl)-1,2,3,4-tetrahydroisoquinolin-6-ol]",180 to 188
16,"CCOc1cc(C(=O)N2CCc3cc(O)ccc3C2)cc(OCC)c1OCC [B14, 2-(3,4,5-Triethoxybenzoyl)-1,2,3,4-tetrahydroisoquinolin-6-ol]",158
17,"COc1ccccc1CN1CCc2cc(O)ccc2C1 [B16, 2-(2-Methoxybenzyl)-1,2,3,4-tetrahydroisoquinolin-6-ol]",148 to 155
18,"COc1ccc(CN2CCc3cc(O)ccc3C2)cc1 [B17, 2-(4-methoxybenzyl)-1,2,3,4-tetrahydroisoquinolin-6-ol]",158 to 160
19,"CCOc1cccc(CN2CCc3cc(O)ccc3C2)c1 [B18, 2-(3-Ethoxybenzyl)-1,2,3,4-tetrahydroisoquinolin-6-ol]",120 to 121
20,"COc1ccc(OC)c(CN2CCc3cc(O)ccc3C2)c1 [B19, 2-(2,5-Dimethoxybenzyl)-1,2,3,4-tetrahydroisoquinolin-6-ol]",178 to 192
21,"COc1cc(CN2CCc3cc(O)ccc3C2)cc(OC)c1 [B20, 2-(3,5-Dimethoxybenzyl)-1,2,3,4-tetrahydroisoquinolin-6-ol]",189 to 195
22,"COc1cccc(CN2CCc3cc(O)ccc3C2)c1OC [B21, 2-(2,3-Dimethoxybenzyl)-1,2,3,4-tetrahydroisoquinolin-6-ol]",111 to 115
23,"CCOc1ccc(CN2CCc3cc(O)ccc3C2)cc1OCC [B22, 2-(3,4-Diethoxybenzyl)-1,2,3,4-tetrahydroisoquinolin-6-ol]",150 to 154
24,"COc1ccc(CN2CCc3cc(O)ccc3C2)cc1OC [B23, 2-(3,4-Dimethoxybenzyl)-1,2,3,4-tetrahydroisoquinolin-6-ol]",119 to 122
25,"Oc1ccc2c(c1)CCN(Cc1ccc3c(c1)OCO3)C2 [B24, 2-(Benzo[d][1,3]dioxol-5-ylmethyl)-1,2,3,4-tetrahydroisoquinolin-6-ol]",169 to 172

row,SMILES,melting point [°C]
1,"COc1ccc(CN2CCc3cc(O)ccc3C2)c(OC)c1 [B25, 2-(2,4-Dimethoxybenzyl)-1,2,3,4-tetrahydroisoquinolin-6-ol]",149 to 152
2,"COc1cc(OC)c(OC)cc1CN1CCc2cc(O)ccc2C1 [B26, 2-(2,4,5-Trimethoxybenzyl)-1,2,3,4-tetrahydroisoquinolin-6-ol]",188 to 191
3,"CCOc1cc(CN2CCc3cc(O)ccc3C2)cc(OCC)c1OCC [B27, 2-(3,4,5-triethoxybenzyl)-1,2,3,4-tetrahydroisoquinolin-6-ol]",140 to 142
4,"COc1cc(O)c(CN2CCc3cc(O)ccc3C2)c(OC)c1 [B28, 2-(2-Hydroxy-4,6-dimethoxybenzyl)-1,2,3,4-tetrahydroisoquinolin-6-ol]",109 to 112
5,"COc1cc(CCN2CCc3cc(O)ccc3C2)cc(OC)c1OC [B29, 2-(3,4,5-Trimethoxyphenethyl)-1,2,3,4-tetrahydroisoquinolin-6-ol]",180 to 186
6,"COc1cc(OC)c(C(=O)N2CCc3cc(OCc4ccccc4)c(OC)cc3C2)c(OC)c1 [F1, 6-Benzyloxy-7-methoxy-2-(2,4,6-trimethoxybenzoyl)-1,2,3,4-tetrahydroisoquinoline]",70 to 72
7,"COc1cc(OC)c(CN2CCc3cc(OCc4ccccc4)c(OC)cc3C2)c(OC)c1 [F2, 6-Benzyloxy-7-methoxy-2-(2,4,6-trimethoxybenzyl)-1,2,3,4-tetrahydroisoquinoline]",129 to 131
8,"COc1cc(OC)c(CN2CCc3cc(O)c(OC)cc3C2)c(OC)c1 [F3, 7-Methoxy-2-(2,4,6-trimethoxybenzyl)-1,2,3,4-tetrahydroisoquinolin-6-ol]",150 to 151
9,"COc1cc2c(cc1OCc1ccccc1)CCN(Cc1cc(F)cc(F)c1)C2 [F5, 6-Benzyloxy-2-(3,5-difluorobenzyl)-7-methoxy-1,2,3,4-tetrahydroisoquinoline]",116 to 117
10,"COc1cc2c(cc1O)CCN(Cc1cc(F)cc(F)c1)C2 [F6, 2-(3,5-Difluorobenzyl)-7-methoxy-1,2,3,4-tetrahydroisoquinolin-6-ol]",110 to 111
11,"COc1cccc(CN2Cc3cc(OC)c(OCc4ccccc4)cc3C(O)C2)c1 (stereo not shown) [F17, 6-Benzyloxy-7-methoxy-2-(3-methoxybenzyl)-1,2,3,4-tetrahydroisoquinolin-4-ol]",115 to 116
12,"COc1ccccc1CN1Cc2cc(OC)c(OCc3ccccc3)cc2C(OC)C1 (stereo not shown) [F19, 6-Benzyloxy-4,7-dimethoxy-2-(2-methoxybenzyl)-1,2,3,4-tetrahydroisoquinoline]",101 to 102
13,"COc1cccc(CN2Cc3cc(OC)c(OCc4ccccc4)cc3C(OC)C2)c1 (stereo not shown) [F20, 6-Benzyloxy-4,7-dimethoxy-2-(3-methoxybenzyl)-1,2,3,4-tetrahydroisoquinoline]",96 to 97
14,"COc1cc2c(cc1OCc1ccccc1)C(OC)CN(Cc1cc(OC)c(OC)c(OC)c1)C2 (stereo not shown) [F22, 6-Benzyloxy-4,7-dimethoxy-2-(3,4,5-trimethoxybenzyl)-1,2,3,4-tetrahydroisoquinoline]",89 to 90
15,"CCOC1CN(Cc2ccc(OC)cc2)Cc2cc(OC)c(OCc3ccccc3)cc21 (stereo not shown) [F25, 6-Benzyloxy-4-ethoxy-7-methoxy-2-(4-methoxybenzyl)-1,2,3,4-tetrahydroisoquinoline]",84 to 85
16,"CCOC1CN(Cc2cc(OC)c(OC)c(OC)c2)Cc2cc(OC)c(OCc3ccccc3)cc21 (stereo not shown) [F26, 6-Benzyloxy-4-ethoxy-7-methoxy-2-(3,4,5-trimethoxybenzyl)-1,2,3,4-tetrahydro-isoquinoline]",132 to 133
17,"COc1cccc(CN2Cc3cc(OC)c(O)cc3C(O)C2)c1 (stereo not shown) [F28, 7-Methoxy-2-(3-methoxybenzyl)-1,2,3,4-tetrahydroisoquinoline-4,6-diol]",137 to 138
18,"COc1cc2c(cc1O)C(O)CN(Cc1cc(OC)c(OC)c(OC)c1)C2 (stereo not shown) [F29, 7-Methoxy-2-(3,4,5-trimethoxybenzyl)-1,2,3,4-tetrahydroisoquinoline-4,6-diol]",62 to 63
19,"COc1cc2c(cc1O)C(OC)CN(Cc1ccccc1OC)C2 (stereo not shown) [F30, 4,7-Dimethoxy-2-(2-methoxybenzyl)-1,2,3,4-tetrahydro-isoquinolin-6-ol]",45 to 47
20,"COc1cccc(CN2Cc3cc(OC)c(O)cc3C(OC)C2)c1 (stereo not shown) [F31, 4,7-Dimethoxy-2-(3-methoxybenzyl)-1,2,3,4-tetrahydro-isoquinolin-6-ol]",133 to 134
21,"COc1ccc(CN2Cc3cc(OC)c(O)cc3C(OC)C2)cc1 (stereo not shown) [F32, 4,7-Dimethoxy-2-(4-methoxybenzyl)-1,2,3,4-tetrahydro-isoquinolin-6-ol]",84 to 85
22,"COc1cc2c(cc1O)C(OC)CN(Cc1cc(OC)c(OC)c(OC)c1)C2 (stereo not shown) [F33, 4,7-Dimethoxy-2-(3,4,5-trimethoxybenzyl)-1,2,3,4-tetrahydro-isoquinolin-6-ol]",51 to 54
23,"CCOC1CN(Cc2ccccc2OC)Cc2cc(OC)c(O)cc21 (stereo not shown) [F34, 4-Ethoxy-7-methoxy-2-(2-methoxybenzyl)-1,2,3,4-tetrahydroisoquinolin-6-ol]",101 to 102
24,"CCOC1CN(Cc2cccc(OC)c2)Cc2cc(OC)c(O)cc21 (stereo not shown) [F35, 4-Ethoxy-7-methoxy-2-(3-methoxy-benzyl)-1,2,3,4-tetrahydroisoquinolin-6-ol]",134 to 135
